Results from publication PMC9088311, “Cyclic Thiosulfonates for Thiol-Mediated Uptake: Cascade Exchangers, Transporters, Inhibitors” (JACS Au, 2022).
Like-named read-outs stand apart in the source and are kept apart here.

What was measured:
[1] = system: HK cells, transporter 31; assay: HCHT imaging: inhibition of cytosolic delivery of ETP transporter 31; format: cell-based, Human; conditions: inhibitor 1 h; for IC15: read-out: MIC (concentration needed to reach 15% inhibition), transporter 31 10 μM
How it was run: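 HeLa Kyoto cells grown 24 h in FluoroBrite DMEM + 10% FBS on 96-well black plates were exposed to serially diluted inhibitors for 1 h at 37 °C, then given fluorescent transporter 31 at 10 μM for 30 min, either after washing the inhibitor out (pre-incubation) or with it still present (co-incubation). Cytosolic delivery was then scored by automated HCHT live-cell imaging with Hoechst 33342 and PI staining.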

[2] = system: HeLa Kyoto cells; assay: Relative viability (HOE/PI) in HCHT screening
How it was run: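 HK cells exposed to increasing inhibitor concentrations, then fluorescent transporters at constant concentration, either after inhibitor removal (pre-incubation) or without removal (co-incubation).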

[3] = system: HK cells, transporter 28; assay: HCHT imaging: inhibition of cytosolic delivery of CTO transporter 28; format: cell-based, Human; conditions: inhibitor 1 h; for IC15 / IC50: Homo sapiens; for IC15: read-out: MIC (concentration needed to reach 15% inhibition), transporter 28 5 μM
[4] = Homo sapiens, 1 h, read-out: IC50 (concentration needed to reach 50% inhibition), transporter 31 10 μM, co-incubation (C)
[5] = Homo sapiens, 1 h, co-incubation (C)
[6] = transporter 31 10 μM, co-incubation (C)
[7] = with transporter 28, pre-incubation (P)
[8] = with transporter 31, co-incubation (C)
[9] = read-out: IC50 (concentration needed to reach 50% inhibition), transporter 28 5 μM, pre-incubation (P)
[10] = with transporter 28, co-incubation (C)
[11] = transporter 28 5 μM, co-incubation (C)

Row | SMILES | IC50 [1, 4] [µM] | IC15 [1, 5] [µM] | MIC (concentration needed to reach 15% inhibition) [1, 6] [µM] | RV50 (concentration needed to lower relative viability by 50%) [2, 7] [µM] | RV50 (concentration needed to lower relative viability by 50%) [2, 8] [µM] | IC15 ([3]; 1 h, pre-incubation (P)) [µM] | IC50 [3, 9] [µM] | IC50 ([1]; read-out: IC50 (concentration needed to reach 50% inhibition), transporter 31 10 μM, co-incubation (C)) [µM] | RV50 (concentration needed to lower relative viability by 50%) [2, 10] [µM] | IC15 ([3]; 1 h, co-incubation (C)) [µM] | IC50 ([3]; read-out: IC50 (concentration needed to reach 50% inhibition), transporter 28 5 μM, co-incubation (C)) [µM] | MIC (concentration needed to reach 15% inhibition) [3, 11] [µM] | IC15 ([1]; Homo sapiens, 1 h, pre-incubation (P)) [µM] | IC50 ([1]; Homo sapiens, read-out: IC50 (concentration needed to reach 50% inhibition), transporter 31 10 μM, pre-incubation (P)) [µM] | RV50 (concentration needed to lower relative viability by 50%) ([2]; with transporter 31, pre-incubation (P)) [µM] | IC50 ([3]; 1 h, read-out: IC50 (concentration needed to reach 50% inhibition), transporter 28 5 μM, co-incubation (C)) [µM] | MIC (concentration needed to reach 15% inhibition) ([3]; transporter 28 5 μM, pre-incubation (P)) [µM]
1 | O=S1(=O)C[C@H](O)[C@H](O)CS1 (stereo in doubt) [Compound 3, (4S,5R)-4,5-dihydroxy-1,2-dithiane-1,1-dioxide] | 35 | 3 | 3 | >1000 | >1000 | 5 | 60 | – | – | – | – | – | – | – | – | – | –
2 | O=S1(=O)C=C[C@@H](O)CS1 [Compound 12] | 7.2 ± 0.9 | < 1 | <1 | – | >50 | – | – | 7 | 100 | 4.8 | 60 | 5 | – | – | – | – | –
3 | O=C1O[C@H]2CSS(=O)(=O)C[C@H]2O1 [Compound 11] | > 50 | < 5 | <5 | – | >50 | – | – | – | > 50 | < 1 | – | <1 | 1.5 | 9 | >20 | 70 ± 20 | –
4 | [O-][S+]1C[C@@H](O)[C@@H](O)CS1 (stereo partly shown) [Compound 2] | – | – | – | >100 | – | > 50 | > 100 | – | – | – | – | – | – | – | – | – | >50
